# In ChEMBL document CHEMBL3351286, “Strategies to inhibit tumor associated integrin receptors: rationale for dual and multi-antagonists” (J Med Chem, 2014):
# Columns and labels:
# Integrin alpha-V/beta-3 [1] = target: T1, Integrin alpha-V/beta-3 (Mus musculus, UniProt O54890+P43406); experiment: Antagonist activity at mouse endothelial alphavbeta3 integrin receptor by cell adhesion assay; assay type: protein-complex assay
# T1 sequence (O54890 whole entry): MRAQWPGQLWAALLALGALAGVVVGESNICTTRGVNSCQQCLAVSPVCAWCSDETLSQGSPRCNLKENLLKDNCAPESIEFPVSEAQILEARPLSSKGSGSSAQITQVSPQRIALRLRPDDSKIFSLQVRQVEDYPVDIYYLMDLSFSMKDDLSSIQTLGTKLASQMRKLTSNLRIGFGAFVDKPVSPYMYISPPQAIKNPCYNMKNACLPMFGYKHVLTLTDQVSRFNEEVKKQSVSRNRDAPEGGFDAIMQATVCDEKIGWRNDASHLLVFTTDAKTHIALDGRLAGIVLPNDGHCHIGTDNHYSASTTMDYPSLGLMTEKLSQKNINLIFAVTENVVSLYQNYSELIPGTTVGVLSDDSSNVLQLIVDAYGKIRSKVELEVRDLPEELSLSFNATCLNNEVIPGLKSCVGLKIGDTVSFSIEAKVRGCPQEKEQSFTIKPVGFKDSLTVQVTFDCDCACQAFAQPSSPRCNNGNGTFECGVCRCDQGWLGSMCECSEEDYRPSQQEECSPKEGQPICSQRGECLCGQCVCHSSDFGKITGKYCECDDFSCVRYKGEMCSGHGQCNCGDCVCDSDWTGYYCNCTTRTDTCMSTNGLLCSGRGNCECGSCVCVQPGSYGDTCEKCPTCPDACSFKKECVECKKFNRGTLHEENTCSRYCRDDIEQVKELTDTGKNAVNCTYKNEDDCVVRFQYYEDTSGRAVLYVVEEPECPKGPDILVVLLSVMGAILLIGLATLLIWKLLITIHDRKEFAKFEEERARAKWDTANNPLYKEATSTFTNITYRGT
# T1 sequence (P43406 whole entry): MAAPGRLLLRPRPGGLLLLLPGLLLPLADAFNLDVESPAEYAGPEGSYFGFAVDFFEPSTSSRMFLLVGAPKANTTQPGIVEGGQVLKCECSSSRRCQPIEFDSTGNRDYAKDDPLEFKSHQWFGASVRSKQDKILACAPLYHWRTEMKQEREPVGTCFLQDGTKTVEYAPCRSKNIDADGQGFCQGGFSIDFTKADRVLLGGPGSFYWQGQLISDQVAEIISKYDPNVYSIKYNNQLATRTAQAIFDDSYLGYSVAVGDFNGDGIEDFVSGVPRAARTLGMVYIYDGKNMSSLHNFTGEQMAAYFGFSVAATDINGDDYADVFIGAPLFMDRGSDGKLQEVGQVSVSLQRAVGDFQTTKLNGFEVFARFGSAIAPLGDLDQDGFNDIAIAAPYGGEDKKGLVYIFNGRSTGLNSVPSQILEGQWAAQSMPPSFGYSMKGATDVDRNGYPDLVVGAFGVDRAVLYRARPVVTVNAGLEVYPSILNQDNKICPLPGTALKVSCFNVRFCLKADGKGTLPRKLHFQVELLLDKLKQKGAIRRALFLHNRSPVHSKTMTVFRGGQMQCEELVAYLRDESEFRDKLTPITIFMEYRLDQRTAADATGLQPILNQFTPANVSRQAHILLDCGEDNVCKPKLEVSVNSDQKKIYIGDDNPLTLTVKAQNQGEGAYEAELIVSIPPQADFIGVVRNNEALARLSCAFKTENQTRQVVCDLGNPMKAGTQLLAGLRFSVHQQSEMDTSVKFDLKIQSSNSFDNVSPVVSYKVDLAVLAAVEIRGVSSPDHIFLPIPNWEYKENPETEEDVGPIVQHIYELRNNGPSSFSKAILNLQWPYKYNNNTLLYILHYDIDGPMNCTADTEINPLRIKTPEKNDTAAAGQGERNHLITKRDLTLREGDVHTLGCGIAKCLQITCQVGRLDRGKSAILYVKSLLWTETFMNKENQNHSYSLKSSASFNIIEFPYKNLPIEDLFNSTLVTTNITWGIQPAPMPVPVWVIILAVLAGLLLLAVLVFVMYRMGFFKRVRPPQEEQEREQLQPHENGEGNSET
# [2] = target: T2, Integrin alpha-IIb/beta-3 (Mus musculus, UniProt O54890+Q9QUM0); experiment: Antagonist activity at mouse endothelial alpha2bbeta3 integrin receptor by cell adhesion assay; assay type: protein-complex assay
# T2 sequence (Q9QUM0 whole entry): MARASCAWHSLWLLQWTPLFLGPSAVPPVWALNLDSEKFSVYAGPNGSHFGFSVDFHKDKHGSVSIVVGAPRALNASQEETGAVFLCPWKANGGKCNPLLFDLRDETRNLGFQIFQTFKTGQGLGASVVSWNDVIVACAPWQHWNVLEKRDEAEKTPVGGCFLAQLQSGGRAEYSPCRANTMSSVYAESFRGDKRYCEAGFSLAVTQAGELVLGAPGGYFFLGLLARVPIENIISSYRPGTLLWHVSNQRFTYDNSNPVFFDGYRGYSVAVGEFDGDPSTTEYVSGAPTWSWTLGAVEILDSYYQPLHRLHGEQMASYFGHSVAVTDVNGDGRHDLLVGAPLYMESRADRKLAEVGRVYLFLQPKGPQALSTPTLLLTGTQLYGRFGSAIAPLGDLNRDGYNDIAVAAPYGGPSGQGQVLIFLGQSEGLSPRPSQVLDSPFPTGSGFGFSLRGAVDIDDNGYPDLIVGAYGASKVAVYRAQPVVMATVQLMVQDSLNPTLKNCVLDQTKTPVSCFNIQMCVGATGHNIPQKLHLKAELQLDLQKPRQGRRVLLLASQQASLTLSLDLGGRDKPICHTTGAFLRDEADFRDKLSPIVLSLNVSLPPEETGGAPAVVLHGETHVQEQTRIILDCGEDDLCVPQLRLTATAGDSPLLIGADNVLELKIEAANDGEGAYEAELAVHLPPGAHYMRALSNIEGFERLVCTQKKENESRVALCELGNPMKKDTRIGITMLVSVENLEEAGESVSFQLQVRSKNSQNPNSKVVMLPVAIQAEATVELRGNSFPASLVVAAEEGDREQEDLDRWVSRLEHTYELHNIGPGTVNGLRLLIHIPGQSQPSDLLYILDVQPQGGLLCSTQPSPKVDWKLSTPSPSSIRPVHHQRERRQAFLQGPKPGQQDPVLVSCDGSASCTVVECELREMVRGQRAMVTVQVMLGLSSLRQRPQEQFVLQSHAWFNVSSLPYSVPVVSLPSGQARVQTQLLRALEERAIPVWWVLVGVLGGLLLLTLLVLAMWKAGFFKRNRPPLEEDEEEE
# T2 sequence (O54890 whole entry): T1 sequence (O54890 whole entry)
# [3] = target: Integrin alpha-IIb/beta-3 (Homo sapiens, UniProt P05106+P08514); experiment: Antagonist activity at alpha2bbeta3 integrin receptor (unknown origin) by cell-free ELISA; assay type: protein-complex assay
# Integrin alpha-V/beta-6 = Integrin alpha-V/beta-6 (Homo sapiens, UniProt P06756+P18564); experiment: Antagonist activity at alphavbeta6 integrin receptor in human HT29 cells after 4 hrs using p-nitrophenyl phosphate by colorimetry; assay type: cell-based, HT-29
# Integrin alpha-5/beta-1 [4] = target: T3, Integrin alpha-5/beta-1 (Homo sapiens, UniProt P05556+P08648); experiment: Antagonist activity at alpha5beta1 integrin receptor in K562 cells after 4 hrs using p-nitrophenyl phosphate by colorimetry; assay type: cell-based
# Integrin alpha-V/beta-8 = Integrin alpha-V/beta-8 (Homo sapiens, UniProt P06756+P26012); experiment: Antagonist activity at human recombinant alphavbeta8 integrin receptor expressed in HEK293 cells after 4 hrs using p-nitrophenyl phosphate by colorimetry; assay type: cell-based
# [5] = target: Integrin alpha-V/beta-5 (Homo sapiens) [+]; experiment: Antagonist activity at alphavbeta5 integrin receptor in HEK293 cells after 4 hrs using p-nitrophenyl phosphate by colorimetry
# Integrin alpha-V/beta-1 [6] = target: T4, Integrin alpha-V/beta-1 (Homo sapiens, UniProt P05556+P06756); experiment: Antagonist activity at alphavbeta1 integrin receptor in HEK293 cells after 4 hrs using p-nitrophenyl phosphate by colorimetry; assay type: cell-based
# Integrin alpha-V/beta-5 [7] = target: T5, Integrin alpha-V/beta-5 (Homo sapiens, UniProt P06756+P18084); experiment: Antagonist activity at alphavbeta5 integrin receptor (unknown origin) by cell-free ELISA; assay type: protein-complex assay
# Integrin alpha-V/beta-3 [8] = target: T6, Integrin alpha-V/beta-3 (Homo sapiens, UniProt P05106+P06756); experiment: Antagonist activity at alphavbeta3 integrin receptor (unknown origin) by cell-free ELISA; assay type: protein-complex assay
# Integrin alpha-5/beta-1 [9] = target: T3, Integrin alpha-5/beta-1; experiment: Antagonist activity at alpha5beta1 integrin receptor (unknown origin) by cell-free ELISA; assay type: protein-complex assay
# Integrin alpha-V/beta-3 [10] = target: T6, Integrin alpha-V/beta-3; experiment: Antagonist activity at alphavbeta3 integrin receptor (unknown origin) by cell-based ELISA
# Integrin alpha-5/beta-1 [11] = target: T3, Integrin alpha-5/beta-1; experiment: Antagonist activity at alpha5beta1 integrin receptor (unknown origin) by cell-based ELISA
# Integrin alpha-V/beta-5 [12] = target: T5, Integrin alpha-V/beta-5; experiment: Antagonist activity at alphavbeta5 integrin receptor (unknown origin) by cell-based ELISA
# Integrin alpha-V/beta-1 [13] = target: T4, Integrin alpha-V/beta-1; experiment: Antagonist activity at alphavbeta1 integrin receptor (unknown origin) by cell-based ELISA
# Integrin alpha-V/beta-3 [14] = target: T6, Integrin alpha-V/beta-3; experiment: Antagonist activity at alphavbeta3 integrin receptor in HEK293 cells after 4 hrs using p-nitrophenyl phosphate by colorimetry; assay type: cell-based
# T6 sequence (P05106 27-788 limits assumed): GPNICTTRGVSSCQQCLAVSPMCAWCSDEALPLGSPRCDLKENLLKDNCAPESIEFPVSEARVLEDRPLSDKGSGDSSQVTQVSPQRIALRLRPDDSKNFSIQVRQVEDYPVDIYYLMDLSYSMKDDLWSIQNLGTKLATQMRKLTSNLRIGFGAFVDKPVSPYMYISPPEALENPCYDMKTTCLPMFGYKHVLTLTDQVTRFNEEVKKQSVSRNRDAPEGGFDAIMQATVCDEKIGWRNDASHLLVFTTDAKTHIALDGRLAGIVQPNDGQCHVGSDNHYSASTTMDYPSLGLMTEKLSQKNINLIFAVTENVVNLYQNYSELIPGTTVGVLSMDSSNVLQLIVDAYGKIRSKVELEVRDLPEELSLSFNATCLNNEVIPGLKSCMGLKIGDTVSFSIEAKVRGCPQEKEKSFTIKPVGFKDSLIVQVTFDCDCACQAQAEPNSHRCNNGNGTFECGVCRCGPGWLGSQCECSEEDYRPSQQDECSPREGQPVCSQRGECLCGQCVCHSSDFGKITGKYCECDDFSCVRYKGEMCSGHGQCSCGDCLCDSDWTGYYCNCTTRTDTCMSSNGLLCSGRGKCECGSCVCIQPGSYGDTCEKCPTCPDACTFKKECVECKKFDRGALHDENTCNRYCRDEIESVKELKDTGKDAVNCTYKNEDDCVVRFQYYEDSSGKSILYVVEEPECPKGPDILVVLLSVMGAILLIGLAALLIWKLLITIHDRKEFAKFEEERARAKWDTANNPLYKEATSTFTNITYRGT
# T6 sequence (P06756 31-889 limits assumed): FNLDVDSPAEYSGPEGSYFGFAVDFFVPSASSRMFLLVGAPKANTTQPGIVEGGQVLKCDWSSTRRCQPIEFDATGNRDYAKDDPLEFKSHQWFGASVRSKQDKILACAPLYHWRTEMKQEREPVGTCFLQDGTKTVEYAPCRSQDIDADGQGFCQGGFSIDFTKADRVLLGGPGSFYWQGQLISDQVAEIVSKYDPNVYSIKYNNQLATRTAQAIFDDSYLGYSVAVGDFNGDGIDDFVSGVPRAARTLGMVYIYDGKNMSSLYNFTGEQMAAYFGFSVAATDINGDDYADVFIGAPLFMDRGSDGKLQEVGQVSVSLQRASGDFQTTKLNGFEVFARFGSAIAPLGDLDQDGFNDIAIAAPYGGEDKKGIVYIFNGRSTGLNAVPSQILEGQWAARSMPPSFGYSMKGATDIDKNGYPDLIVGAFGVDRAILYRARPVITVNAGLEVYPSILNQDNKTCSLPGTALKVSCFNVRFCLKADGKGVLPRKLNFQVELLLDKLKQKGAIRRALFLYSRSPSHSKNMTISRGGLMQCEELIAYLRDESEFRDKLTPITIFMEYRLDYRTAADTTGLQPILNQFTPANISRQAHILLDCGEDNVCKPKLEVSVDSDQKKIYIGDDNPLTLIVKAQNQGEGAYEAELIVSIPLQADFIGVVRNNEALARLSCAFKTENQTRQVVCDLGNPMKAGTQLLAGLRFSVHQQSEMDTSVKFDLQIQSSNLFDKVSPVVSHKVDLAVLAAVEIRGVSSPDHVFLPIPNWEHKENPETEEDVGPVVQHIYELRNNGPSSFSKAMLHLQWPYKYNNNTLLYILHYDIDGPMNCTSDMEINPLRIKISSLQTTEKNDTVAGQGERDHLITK
# T6 sequence (P06756 891-1048 limits assumed): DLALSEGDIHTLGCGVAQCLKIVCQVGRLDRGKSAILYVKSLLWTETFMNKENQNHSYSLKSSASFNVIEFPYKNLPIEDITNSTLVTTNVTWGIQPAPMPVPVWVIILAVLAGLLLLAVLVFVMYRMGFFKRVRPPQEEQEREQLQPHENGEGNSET
# Integrin alpha-IIb/beta-3 (Homo sapiens, UniProt P05106+P08514), sequence (P05106 27-788 limits assumed): as the sequence (P05106 27-788 limits assumed) above
# Integrin alpha-IIb/beta-3 (Homo sapiens, UniProt P05106+P08514), sequence (P08514 32-887 limits assumed): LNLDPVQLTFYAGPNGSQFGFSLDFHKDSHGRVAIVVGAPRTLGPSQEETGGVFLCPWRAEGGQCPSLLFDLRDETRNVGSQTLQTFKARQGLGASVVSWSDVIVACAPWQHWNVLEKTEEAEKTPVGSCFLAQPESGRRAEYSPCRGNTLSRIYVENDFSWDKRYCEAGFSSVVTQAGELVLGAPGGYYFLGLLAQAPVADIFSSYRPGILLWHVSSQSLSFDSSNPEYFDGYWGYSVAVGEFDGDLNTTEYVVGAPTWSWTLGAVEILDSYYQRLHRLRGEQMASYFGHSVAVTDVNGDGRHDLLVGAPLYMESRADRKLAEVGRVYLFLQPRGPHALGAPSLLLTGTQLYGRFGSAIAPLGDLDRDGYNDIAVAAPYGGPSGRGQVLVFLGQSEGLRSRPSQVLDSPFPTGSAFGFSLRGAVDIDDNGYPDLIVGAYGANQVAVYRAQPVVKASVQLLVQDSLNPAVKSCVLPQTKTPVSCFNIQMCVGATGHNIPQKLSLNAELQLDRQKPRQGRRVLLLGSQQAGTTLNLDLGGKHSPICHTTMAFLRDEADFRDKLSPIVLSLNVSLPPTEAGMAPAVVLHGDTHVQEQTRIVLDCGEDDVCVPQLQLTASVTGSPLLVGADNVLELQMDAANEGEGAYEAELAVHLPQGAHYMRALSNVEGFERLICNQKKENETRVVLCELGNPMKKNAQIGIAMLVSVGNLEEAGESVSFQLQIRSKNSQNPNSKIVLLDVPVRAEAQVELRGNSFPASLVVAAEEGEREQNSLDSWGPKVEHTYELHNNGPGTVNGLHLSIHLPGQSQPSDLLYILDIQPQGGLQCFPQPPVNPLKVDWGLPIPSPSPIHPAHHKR
# Integrin alpha-IIb/beta-3 (Homo sapiens, UniProt P05106+P08514), sequence (P08514 891-1039 limits assumed): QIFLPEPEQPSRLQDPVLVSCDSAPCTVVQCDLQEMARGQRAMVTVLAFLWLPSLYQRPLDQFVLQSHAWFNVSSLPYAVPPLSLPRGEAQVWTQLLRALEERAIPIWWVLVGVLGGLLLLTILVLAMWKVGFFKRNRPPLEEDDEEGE
# T5 sequence (P06756 31-889 limits assumed): as the sequence (P06756 31-889 limits assumed) above
# T5 sequence (P06756 891-1048 limits assumed): as the sequence (P06756 891-1048 limits assumed) above
# T5 sequence (P18084 24-799 limits assumed): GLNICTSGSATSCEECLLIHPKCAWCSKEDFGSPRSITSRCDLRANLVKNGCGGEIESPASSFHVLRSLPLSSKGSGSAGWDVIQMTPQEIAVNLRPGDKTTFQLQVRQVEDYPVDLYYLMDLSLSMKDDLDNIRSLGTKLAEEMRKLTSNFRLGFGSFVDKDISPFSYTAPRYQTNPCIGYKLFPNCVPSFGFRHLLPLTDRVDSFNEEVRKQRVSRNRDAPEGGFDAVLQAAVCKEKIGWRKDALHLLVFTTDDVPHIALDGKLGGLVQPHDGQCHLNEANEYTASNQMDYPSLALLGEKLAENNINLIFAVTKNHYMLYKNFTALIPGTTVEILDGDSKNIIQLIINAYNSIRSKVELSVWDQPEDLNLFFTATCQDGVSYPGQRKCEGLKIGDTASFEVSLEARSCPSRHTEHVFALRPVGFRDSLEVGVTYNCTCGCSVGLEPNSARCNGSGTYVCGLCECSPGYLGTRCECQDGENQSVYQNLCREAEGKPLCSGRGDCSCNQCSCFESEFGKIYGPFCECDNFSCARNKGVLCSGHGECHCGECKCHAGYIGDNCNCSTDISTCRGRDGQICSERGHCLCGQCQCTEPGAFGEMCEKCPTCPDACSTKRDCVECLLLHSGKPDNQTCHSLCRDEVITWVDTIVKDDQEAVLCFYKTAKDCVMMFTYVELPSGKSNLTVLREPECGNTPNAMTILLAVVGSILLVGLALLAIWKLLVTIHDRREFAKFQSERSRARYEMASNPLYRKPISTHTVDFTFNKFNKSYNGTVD
# T4 sequence (P05556 21-798 limits assumed): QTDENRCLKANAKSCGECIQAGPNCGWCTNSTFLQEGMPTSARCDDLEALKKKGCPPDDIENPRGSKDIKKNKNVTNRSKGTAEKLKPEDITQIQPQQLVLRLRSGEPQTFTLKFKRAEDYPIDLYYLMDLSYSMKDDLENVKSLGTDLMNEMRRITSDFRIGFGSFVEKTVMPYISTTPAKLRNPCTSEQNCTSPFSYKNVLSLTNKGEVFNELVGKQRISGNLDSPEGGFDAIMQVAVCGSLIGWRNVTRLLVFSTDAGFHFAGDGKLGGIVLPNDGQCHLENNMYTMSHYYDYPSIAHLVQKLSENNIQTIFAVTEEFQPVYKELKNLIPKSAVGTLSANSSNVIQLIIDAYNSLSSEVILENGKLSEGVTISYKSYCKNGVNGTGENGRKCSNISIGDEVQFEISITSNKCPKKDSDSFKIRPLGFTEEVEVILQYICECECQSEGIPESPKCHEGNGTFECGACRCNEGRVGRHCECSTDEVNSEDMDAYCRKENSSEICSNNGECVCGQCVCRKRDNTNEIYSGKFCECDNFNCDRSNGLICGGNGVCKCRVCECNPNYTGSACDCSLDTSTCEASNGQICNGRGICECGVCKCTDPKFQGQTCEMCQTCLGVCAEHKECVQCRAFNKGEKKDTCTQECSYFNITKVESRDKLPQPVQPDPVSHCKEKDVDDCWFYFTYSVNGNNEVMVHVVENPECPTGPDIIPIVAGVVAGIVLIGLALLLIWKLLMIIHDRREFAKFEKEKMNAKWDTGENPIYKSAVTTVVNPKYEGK
# T4 sequence (P06756 31-889 limits assumed): as the sequence (P06756 31-889 limits assumed) above
# T4 sequence (P06756 891-1048 limits assumed): as the sequence (P06756 891-1048 limits assumed) above
compound,measurement,setting,value
Cc1cc(C)c(S(=O)(=O)N[C@@H](CNC(=O)c2ccc3c(cnn3CCCNc3ncc[nH]3)c2)C(=O)O)c(C)c1,IC50,Integrin alpha-V/beta-3 [1],2.3 nM
same,IC50,[2],21 nM
O=C(O)C[C@H](NC(=O)CNC(=O)c1cncc(N=C2NCC(O)CN2)c1)c1cc(Cl)cc(Br)c1O (stereo partly specified),IC50,[3],380 nM
same,IC50,Integrin alpha-V/beta-6,1.13 nM
same,IC50,Integrin alpha-5/beta-1 [4],64 nM
same,IC50,Integrin alpha-V/beta-8,0.65 nM
same,IC50,[5],1.5 nM
same,IC50,Integrin alpha-V/beta-1 [6],1.59 nM
O=C(O)CC1CC(CNC(=O)CCCNc2ccccn2)=CCc2ccccc21 (stereo unspecified),IC50,Integrin alpha-V/beta-5 [7],1 nM
same,IC50,Integrin alpha-V/beta-3 [8],2 nM
O=C(N[C@@H](CNC(=O)c1ccc(CN(Cc2nc3ccccc3[nH]2)C(=O)NC2CCCCC2)cc1)C(=O)O)OCc1ccccc1,IC50,Integrin alpha-V/beta-5 [7],1.7 nM
same,IC50,Integrin alpha-5/beta-1 [9],421 nM
same,IC50,Integrin alpha-V/beta-3 [8],3.2 nM
C=Cc1cnc(NC[C@@H]2C[C@]3(CC(C(=O)NC[C@H](NS(=O)(=O)c4c(C)cc(C)cc4C)C(=O)O)=NO3)CN2C(=O)OCCCC)[nH]1,IC50,Integrin alpha-5/beta-1 [9],0.39 nM
same,IC50,Integrin alpha-V/beta-3 [8],87 nM
N=C(N)NCCCCC(=O)NCC(=O)NC(CC(=O)O)c1cccnc1 (stereo unspecified),IC50,Integrin alpha-V/beta-3 [10],120 nM
same,IC50,Integrin alpha-5/beta-1 [11],70000 nM
same,IC50,[3],9 nM
same,IC50,Integrin alpha-V/beta-5 [12],23 nM
same,IC50,Integrin alpha-V/beta-1 [13],317 nM
same,IC50,Integrin alpha-V/beta-3 [8],10 nM
Cc1cc(C)c(S(=O)(=O)N[C@@H](CNC(=O)c2ccc(-c3cccc(CN=C(N)N)c3)s2)C(=O)O)c(C)c1,IC50,Integrin alpha-V/beta-3 [10],3.5 nM
same,IC50,Integrin alpha-5/beta-1 [11],20 nM
same,IC50,[3],0.2 nM
same,IC50,Integrin alpha-V/beta-5 [12],60 nM
N=C(N)NCCC[C@@H]1NC(=O)CNC(=O)[C@H](CC(=O)O)N[C@H](C(=O)O)C[S+]([O-])CC(=O)N[C@H](Cc2ccc(O)cc2)C1=O (stereo partly specified),IC50,[3],1.5 nM
O=C(NC[C@H](NS(=O)(=O)c1c(Cl)cccc1Cl)C(=O)O)c1ccc2c(cnn2CCCNc2ncc[nH]2)c1,IC50,Integrin alpha-V/beta-3 [1],8.5 nM
same,IC50,[2],12 nM
N=C(N)NCc1cccc(-c2ccc(C(=O)NC[C@H](NS(=O)(=O)c3ccccc3)C(=O)O)s2)c1,IC50,Integrin alpha-V/beta-3 [10],0.033 nM
same,IC50,[3],0.3 nM
N=C(N)NCCC[C@H](NC(=O)OCc1ccccc1)[C@H]1CC[C@H](C(=O)NC[C@H](NC(=O)OCc2ccccc2)C(=O)O)O1,IC50,[3],67 nM
same,IC50,Integrin alpha-V/beta-3 [8],52 nM
N=C(N)NCCCc1cn(CC(=O)N[C@@H](CC(=O)O)c2ccccc2)nn1,IC50,Integrin alpha-V/beta-5 [7],1.02 nM
same,IC50,Integrin alpha-V/beta-3 [8],1.35 nM
O=C(O)C[C@H](NC(=O)CNC(=O)c1cc(O)cc(NC2=NCC(O)CN2)c1)c1cc(Cl)cc(Br)c1O (stereo partly specified),IC50,[3],257 nM
same,IC50,Integrin alpha-V/beta-6,11.7 nM
same,IC50,Integrin alpha-V/beta-3 [14],1.6 nM
same,IC50,Integrin alpha-5/beta-1 [4],316 nM
same,IC50,Integrin alpha-V/beta-8,1.71 nM
same,IC50,[5],18.1 nM
same,IC50,Integrin alpha-V/beta-1 [6],10.4 nM
